Data reported in article PMC3810402 (Journal of the American Chemical Society, 2008).

Experiments:
HCT116-p53+/+ cells = assay: MTS cell viability assay, HCT116; format: cell-based; conditions: single dose, 10 μg/mL, positive control
SW480 cells (mutant p53) = assay: Tumor-killing activity by Trypan blue cell count, SW480; format: cell-based; conditions: added daily, 10 μg/mL

Structure (SMILES): COc1ccc(C2=N[C@@H](c3ccc(Cl)cc3)[C@@H](c3ccc(Cl)cc3)N2C(=O)N2CCNC(=O)C2)c(OC(C)C)c1 [Nutlin-3]
- HCT116 cell viability (MTS) (HCT116-p53+/+ cells): a reduction in HCT116 cell viability
- effectiveness against SW480 (SW480 cells (mutant p53)): ineffective
